Five molecules from patent US20110262552A1, “Compositions Comprising Plant Extracts and Use Thereof for Treating Inflammation” (priority 2008, published 2011) can be followed below.

The subject of series [1] is carrageenan-induced paw edema. The experiment in a line: Carrageenin-induced acute inflammation (paw edema) in mice. The note with it: oral; for % inhibition (hind paw edema): 1 h before intra-plantar carrageenan, edema 4 h after, compositions 1-4 250 mg/kg total, Aspirin 150, Phenylbutazone 30, Celebrex 10, Naproxen 30 mg/kg; for anti-inflammatory activity in carrageenan-induced paw edema assay: doses as in Table V. In kind it is in vivo, CD-1 mice. How it is done: Male CD-1 (Crl.) derived mice weighing 22±1 g were obtained from BioLasco Taiwan (under Charles River Laboratories Technology Licensee). All animals were housed in a controlled temperature (22° C.-24° C.) and humidity (60%-80%) environment with 12 hours light/dark cycles for at least one week prior to experimental use. The animals had free access to standard lab chow for mice (MF-18 (Oriental Yeast Co., Ltd., Japan) and Reverse Osmosis water was granted. All aspects of the study including housing, experimentation and disposal of animals were performed in general accordance with the Guide for the Care and Use of Laboratory Animals (National Academy Press, Washington, D.C., 1996). Groups of 5 CD-1 male mice were fasted overnight prior to use. The test substances were administered orally one hour before intra-plantar injection of the right hind paw with carrageenan (50 μl of 1% suspension).

For series [2], the system named is Complete Freund's Adjuvant-induced arthritis (hind paw volume). The experiment in a line: Adjuvant-induced arthritis in rats. It is filed as in vivo, Lewis rats. The note with it: reference drugs oral once daily for 5 days: Phenylbutazone 35, Celebrex 10, Dexamethasone 5 mg/kg. As to the method:
The study was conducted in male Lewis rats obtained from Charles River Japan, Inc. The animals were housed in a controlled temperature (21° C.-24° C.) and humidity (54%-68%) environment with 12 hour light/dark cycles for at least 1 week prior to use. Rats had Laboratory Rodent Diet MF-18 (Oriental Yeast Co., Ltd., Japan) and water (reverse osmosis purified water) ad libitum. The entire study and animal conditions and manipulations were conducted in accordance with the Guide for the Care and Use of Laboratory Animals (National Academy Press, Washington, D.C., 1996).
Eight groups of 5 rats weighing approximately 210±10 g were used. […] A dosing volume of 10 ml/kg was used. A well-ground suspension of killed Mycobacterium tuberculosis (0.3 mg in 0.1 ml of light mineral oil (CFA) was administered in a single dose into the subplantar region of the right hind paw 1 hour following the first dose of the test and reference compositions.
Right hind paw volume was measured 4 hours after single CFA injection (denoted day 1), and on day 5 (acute phase), while the left hind paw (without CFA) volume was measured on day 14 and 18 (delayed phase). Hind paw volume was measured by plethysmometer and water cell (25 mm diameter).

Series [3] deals with knee pain associated with arthrosis. An excerpt: A 10 year old Husky with a history of bilateral rupture of the cruciate ligament had bilateral knee surgery to correct this problem. The animal was also known to have zinc deficiency.
The dog was prescribed metacam for knee pain associated with arthrosis.

`CC(=O)Oc1ccccc1C(=O)O` [Aspirin]: in series [1], the “% inhibition (hind paw edema)” value amounted to 36% and the “anti-inflammatory activity in carrageenan-induced paw edema assay” value (from here on “anti-inflammatory activity”) is reported as “significant anti-inflammatory activity”.
For the molecule `Cc1ccc(-c2cc(C(F)(F)F)nn2-c2ccc(S(N)(=O)=O)cc2)cc1` [Celebrex], in series [1], the “% inhibition (hind paw edema)” value is given as 23% and the “anti-inflammatory activity” value is listed as “significant anti-inflammatory activity”. Moreover, in series [2], the “% inhibition Day 14-0” value is reported as 20%, the “% inhibition Day 18-0” value turned out to be 25% and the “% inhibition Day 18-14” value came to 30%.
On to `COc1ccc2cc([C@H](C)C(=O)O)ccc2c1` [Naproxen], for which, in series [1], the “% inhibition (hind paw edema)” value was 36% and the “anti-inflammatory activity” value is listed as “significant anti-inflammatory activity”.
Regarding `CCCCC1C(=O)N(c2ccccc2)N(c2ccccc2)C1=O` [Phenylbutazone], the “% inhibition (hind paw edema)” value in series [1] was found to be 23%. In series [2], the “% inhibition Day 14-0” value was 18, 18, 18%; the “% inhibition Day 18-0” value is 18, 18, 18%; the “% inhibition Day 18-14” value was 18, 18, 18%.
Regarding `Cc1cnc(NC(=O)C2=C(O)c3ccccc3S(=O)(=O)N2C)s1` [metacam], the “pain control / pain relief (clinical examination)” value in series [3] (10 year old Husky, composition #8 1 gram per 10 kg body weight daily, a few weeks) is reported as “only partially controlled”. For the same molecule, the intolerance result in series [3] (dog, in vivo) was “signs of intolerance”.
